Measurements from patent US12220412B2, “Methods for administering corticosteroids” (Sparrow Pharmaceuticals, Inc., priority 2018, dated 2025).

How the values were obtained:
[1] = tested on: Adults with painful diabetic peripheral neuropathy; assay: 6-week randomized trial in adults with painful diabetic peripheral neuropathy (pain relief, glycemic control, lipids, blood pressure, weight); format: in vivo, human; parameters: Weight / HbA1c (%) / Plasma glucose / Urine glucose (% positive) / Cholesterol / Triglycerides / Systolic BP (mm Hg) / Diastolic BP (mm Hg): reference not given here
Experimental: Adults with painful diabetic peripheral neuropathy were randomized to treatment with SPI-62, placebo for SPI-62, or pregabalin (positive control) for 6 weeks. […] The trial was terminated. Descriptive analysis on parameters of glycemic control, blood lipids, blood pressure, and weight was conducted. […] As this was an exploratory analysis, statistical hypothesis tests were not performed.

HSD-1 = HSD-1 (Homo sapiens, UniProt P28845); assay: Direct sigmoidal Emax model of plasma concentration vs brain HSD-1 occupancy (ROIswa); format: in vivo; parameters: from tissue; host or cells: in vivo, human subjects; settings: brain HSD-1 occupancy (ROIswa) vs plasma concentration
Experimental: Simulations of brain enzyme occupancy were conducted for several dosing schemes for Compound A that involved both an initial dose and a maintenance dose.
The relationship of Compound A plasma concentrations to region of interest size weighted average (ROIswa) HSD-1 occupancy in brain was best described by a direct sigmoidal Emax model (FIG. 5).

[2] = adults with painful diabetic peripheral neuropathy, 6 weeks treatment, descriptive analysis

Sequence of HSD-1 (P28845 whole entry): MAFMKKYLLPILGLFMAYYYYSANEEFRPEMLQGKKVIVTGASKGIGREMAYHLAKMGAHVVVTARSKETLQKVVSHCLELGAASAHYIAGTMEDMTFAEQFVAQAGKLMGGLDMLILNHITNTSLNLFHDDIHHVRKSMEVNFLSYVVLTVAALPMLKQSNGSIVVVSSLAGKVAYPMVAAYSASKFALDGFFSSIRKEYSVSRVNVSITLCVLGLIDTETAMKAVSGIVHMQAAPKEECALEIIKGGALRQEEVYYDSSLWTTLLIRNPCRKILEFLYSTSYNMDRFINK

Cn1c(-c2ccc(C(N)=O)cc2F)nnc1C(C)(C)Oc1c(F)cc(Cl)cc1F [Compound A]
Cholesterol [1, 2]: -0.48 ± 0.12 mM
Diastolic BP (mm Hg) [1, 2]: 0 ± 2 mm Hg
HbA1c (%) [1, 2]: −0.31 ± 0.11%
Plasma glucose [1, 2]: 0.084 ± 0.38 mM
Systolic BP (mm Hg) [1, 2]: −1 ± 3 mm Hg
Triglycerides [1, 2]: -0.11 ± 0.09 mM
Urine glucose (% positive) [1, 2]: −2.5 ± 3.0 % positive
Weight [1, 2]: -0.3 ± 0.3 kg
trends compared to placebo on HbA1c, plasma glucose, urine glucose, cholesterol and triglycerides (not on systolic or diastolic blood pressure or weight) ([1]; exploratory descriptive analysis, no hypothesis tests): Favorable numeric trends
pain relief compared to the placebo group ([1]; interim review after 150 subjects completed treatment): not any better
Hill coefficient, estimate (HSD-1): 1.53
Maximum effect, Emax (% HSD-1 occupancy), estimate (HSD-1): 97.6%
EC50 (HSD-1; read-out: Plasma concentration when half Emax is achieved, EC50, estimate (converted)): 0.24 nM
